# Assay results from paper PMC7552967, “Anti-Melanoma Activities of Artemisone and Prenylated Amino-Artemisinins in Combination With Known Anticancer Drugs” (Frontiers in Pharmacology, 2020).
# Columns and labels:
# [1] = tested on: HEK293 cells; assay: MTT cytotoxicity assay, HEK293; type: cell-based; details: Homo sapiens, 24 h exposure, mean ± SD, three biological replicates
# Description: The human cell lines TK10 (human kidney adenocarcinoma), UACC62 (human melanoma) and MCF7 (human breast adenocarcinoma) were obtained from the National Cancer Institute (NCI) as part of a panel widely studied for drug screening and molecular target identification. Melanoma (A375) and human embryonic kidney (HEK293) were acquired from the American Type Culture Collection; ATCC® CRL-1619™ and ATCC® CRL-1573™ respectively. The nontumorigenic human immortalized keratinocyte (HaCaT) cells were a kind donation by the School of Anatomical Sciences, Faculty of Health Sciences, University of the Witwatersrand, South Africa. HaCaT cells were chosen as the nonmalignant control due to their ease of propagation, near normal phenotype and general use as an A375 control ([Dwivedi et al., 2015]; [Lewies et al., 2018]). The A375 cell line is a […] cells line with the BRAF mutation frequently used for in vitro drug screening assays for anti-melanoma drugs ([Couto et al., 2019]). All reagents were of analytical grade and were obtained from Merck (Darmstadt, Germany) unless stated otherwise. Cells were cultured in Dulbecco’s modified essential medium (DMEM; Hyclone, GE healthcare, South Logan, UT, USA) containing 10% fetal bovine serum (FBS), 1% penicillin/streptomycin, 1% 200 mM L-Glutamine and 1% nonessential amino acids (Lonza, Basel, Switzerland) at 37°C in a humidified atmosphere of 5% CO2. […]
# The growth inhibitory effects of the compounds were tested in the 3-cell line panel consisting of TK10 (renal), UACC62 (melanoma) and MCF7 (breast) cancer cells by Sulforhodamine B (SRB) assay. In addition, activity was also evaluated against HEK293 cells with the 3-(4,5-dimethylthiazol-2-yl)-2,5-diphenyl tetrazolium bromide (MTT) assay ([Mosmann, 1983]). […] The results were expressed as half maximal inhibitory concentrations (IC50) as described before ([Lewies et al., 2018]). […] After incubation, cell viability was determined using a microplate reader (BioTek®, Vermont, USA) at an excitation wavelength of 560 nm and emission wavelength of 630 nm with DMSO measured as a blank. Cell viability was expressed as a percentage relative to the untreated control, which is assumed to be 100% viable. […] Using the MTT assay data, IC50 values were calculated using GraphPad Prism 8. […] The curve was fitted using the log(inhibitor) vs. response function and the IC50 values calculated ([Lewies et al., 2018]). A crude therapeutic index (fold decrease in IC50 value) was calculated as the IC50 of the noncancerous cell-line/IC50 of the cancerous cell line. […] Drug interactions were evaluated for synergism, additivity or antagonism using multiple drug effect analysis, based on the median-principle. Cells were treated with the drug combinations for 24 h and analyzed. […]
# [2] = tested on: TK10 renal cancer cells; assay: Sulforhodamine B (SRB) growth inhibition assay, TK10; type: cell-based; details: Homo sapiens, TK-10, mean ± SD
# Description: The human cell lines TK10 (human kidney adenocarcinoma), UACC62 (human melanoma) and MCF7 (human breast adenocarcinoma) were obtained from the National Cancer Institute (NCI) as part of a panel widely studied for drug screening and molecular target identification. Melanoma (A375) and human embryonic kidney (HEK293) were acquired from the American Type Culture Collection; ATCC® CRL-1619™ and ATCC® CRL-1573™ respectively. The nontumorigenic human immortalized keratinocyte (HaCaT) cells were a kind donation by the School of Anatomical Sciences, Faculty of Health Sciences, University of the Witwatersrand, South Africa. […]
# The growth inhibitory effects of the compounds were tested in the 3-cell line panel consisting of TK10 (renal), UACC62 (melanoma) and MCF7 (breast) cancer cells by Sulforhodamine B (SRB) assay. In addition, activity was also evaluated against HEK293 cells with the 3-(4,5-dimethylthiazol-2-yl)-2,5-diphenyl tetrazolium bromide (MTT) assay ([Mosmann, 1983]). […] The results were expressed as half maximal inhibitory concentrations (IC50) as described before ([Lewies et al., 2018]). […] After incubation, cell viability was determined using a microplate reader (BioTek®, Vermont, USA) at an excitation wavelength of 560 nm and emission wavelength of 630 nm with DMSO measured as a blank. […] Using the MTT assay data, IC50 values were calculated using GraphPad Prism 8. […]
Compound,IC50 [1] [µM],IC50 [2] [µM]
"C[C@@H]1CC[C@H]2[C@@H](C)C(=O)O[C@@H]3O[C@@]4(C)CC[C@@H]1[C@]32OO4 [Artemisinin 2, artemisinin]",120.7 ± 1.07,–
"C[C@H]1[C@H](N2CCS(=O)(=O)CC2)O[C@@H]2O[C@@]3(C)CC[C@H]4[C@H](C)CC[C@@H]1[C@@]24OO3 [Artemisone 4, artemisone]",86.7 ± 1.09,> 100
"CC(C)=CCC/C(C)=C/CC/C(C)=C/CN1CCN([C@@H]2O[C@@H]3O[C@@]4(C)CC[C@H]5[C@H](C)CC[C@@H]([C@H]2C)[C@@]35OO4)CC1 [Farnesylpiperazine-DHA 7, farnesylpiperazine-DHA]",35.5 ± 1.09,3 ± 0.67
"CC(C)=CCC/C(C)=C/CN1CCN([C@@H]2O[C@@H]3O[C@@]4(C)CC[C@H]5[C@H](C)CC[C@@H]([C@H]2C)[C@@]35OO4)CC1 [Geranylpiperazine-DHA 6, geranylpiperazine-DHA]",24.3 ± 1.15,–
